This is an account of results in publication PMC10052035, “Virtual Screening, Structural Analysis, and Formation Thermodynamics of Carbamazepine Cocrystals” (Pharmaceutics, 2023).

Values after ≈ are worked out from the molar mass of the structure shown. Read-outs that look alike come from different tables or passages of the source.

As a reminder, the solubility is the concentration that dissolves in the medium under given conditions.

The conditions of data set [1]: cited from earlier work.
For data set [2] the following is noted: cited from earlier work. This is another data set of the same source.
Data set [3] in a line: Solubility of cocrystals and their constituents in organic solvents (shake-flask, HPLC). As to conditions: for solubility at 48 h: organic solvent or mixture, thermodynamic from solid; for Cp∙10^2, solubility of pure component: 293.15 K, value is C∙10^2. The procedure:
For the [CBZ + 3AcAmBA] (1:1) cocrystal, methanol was used. For [CBZ + 4AcAmBA] (1:1), all the experiments were performed in acetonitrile. An excess of the solid was placed in an Eppendorf tube, and 2 mL of solvent was added. The resulting suspension was shaken in a ThermoMixer C (Eppendorf, Hamburg, Germany) at 800 rpm for 48 h at the specified temperature. Subsequently, the saturated solution was separated using a 0.22 μm PTEF filter, diluted, and analyzed using HPLC. The solid phases after the experiment were collected and characterized by PXRD. Each experiment was repeated three times.
The HPLC was performed on an LC-20 AD Shimadzu Prominence model (Shimadzu, Kyoto, Japan) equipped with a PDA detector and a Luna C-18 column (150 mm × 4.6 mm i.d., 5 μm particle size, and 100 Å pore size). The column temperature was set to 40 °C. To achieve the proper separation of the cocrystal components, different ratios of the mobile phase, consisting of acetonitrile and a 0.1% aqueous solution of trifluoroacetic acid (35:65 v/v), were used. The flow rate was 1.0 mL·min^−1, and the injection volume was 20 μL. The UV detection of carbamazepine, 2-acetamidobenzoic acid, 3-acetamidobenzoic acid, and 4-acetamidobenzoic acid was carried out at the wavelengths of 285 nm, 249 nm, 220 nm, and 266 nm, respectively.

`Cc1cc(C)nc(NS(=O)(=O)c2ccc(N)cc2)n1.O=C(O)c1ccccc1O` [[Sulfamethazine + salicylic acid] (1:1)]: in data set [1] (293 K, ref [21]), the TΔformS is 7.1 kcal/mol, the ΔformG was -1.7 kcal/mol and the ΔformH is 5.52 kcal/mol.
In the case of `CC(O)(CS(=O)(=O)c1ccc(F)cc1)C(=O)Nc1ccc(C#N)c(C(F)(F)F)c1.NC(=O)c1ccccc1O` (stereo not shown) [[Bicalutamide + Salicylamide] (1:1)], in data set [1] (298 K, ref [11]), the TΔformS is -2.2 ± 0.19 kcal/mol, the ΔformG is -0.526 ± 0.072 kcal/mol and the ΔformH was -2.72 ± 0.12 kcal/mol.
For the molecule `NC(=O)N1c2ccccc2C=Cc2ccccc21` [CBZ, carbamazepine], the “log(S0), intrinsic solubility” value in data set [2] (2-propanol, ref [6]) is recorded as -1.36 mol⋅L-1; in data set [2] (2-propanol, ref [10]) it was -1.3 mol⋅L-1; in data set [2] (Acetone, ref [6]) it was -1.27 mol⋅L-1; in data set [2] (Ethanol, ref [6]) it was -0.97 mol⋅L-1; in data set [2] (Ethanol, ref [10]) it was -0.85 mol⋅L-1; in data set [2] (Ethyl acetate, ref [6]) it was -1.32 mol⋅L-1. In addition, the “log(S0), intrinsic solubility” value was -1.31 mol⋅L-1 in data set [2] (Ethyl acetate, ref [10]) and -0.49 mol⋅L-1 in data set [2] (Methanol, ref [6]). For the same molecule, the solubility at 48 h in data set [3] (acetonitrile, 20 °C) was determined as 142 ± 3 mM (≈ 33.6 mg/mL); in data set [3] (acetonitrile, 25 °C), 162 ± 4 mM (≈ 38.3 mg/mL); in data set [3] (acetonitrile, 30 °C), 191 ± 4 mM (≈ 45.1 mg/mL); in data set [3] (acetonitrile, 35 °C) it was 222 ± 3 mM (≈ 52.5 mg/mL); in data set [3] (acetonitrile, 40 °C), 250 ± 4 mM (≈ 59.1 mg/mL); in data set [3] (methanol, 20 °C) it was 220 ± 2 mM (≈ 52 mg/mL). The solubility at 48 h worked out at 248 ± 2 mM (≈ 58.6 mg/mL) in data set [3] (methanol, 25 °C); 285 ± 2 mM (≈ 67.3 mg/mL) in data set [3] (methanol, 30 °C); 323 ± 3 mM (≈ 76.3 mg/mL) in data set [3] (methanol, 35 °C); 356 ± 1 mM (≈ 84.1 mg/mL) in data set [3] (methanol, 40 °C). The entries for the “Cp∙10^2, solubility of pure component” value in data set [3] (acetonitrile) and in data set [3] (methanol) were 14.2±0.3 mol/l and 22.0±0.2 mol/l, respectively.
For `NC(=O)c1cccnc1` [Nicotinamide], the “log(S0), intrinsic solubility” value was -0.2 mol⋅L-1 in data set [2] (2-propanol, ref [10]); 0.04 mol⋅L-1 in data set [2] (Ethanol, ref [10]); -0.96 mol⋅L-1 in data set [2] (Ethyl acetate, ref [10]).
On to `NCC(=O)O.O=C(O)/C=C\C(=O)O` [[Glycine + Maleic acid] (1:1)], for which, in data set [1] (298 K, ref [17]), the TΔformS is -1.36 ± 0.239 kcal/mol, the ΔformG was -1.29 ± 0.096 kcal/mol and the ΔformH was -2.65 ± 0.22 kcal/mol.
As for `NC(=O)c1ccncc1.O=C1CN(N=Cc2ccc([N+](=O)[O-])o2)C(=O)N1` [[Nitrofurantoin + Isonicotinamide] (1:1)], in data set [1] (298 K, ref [19]), the TΔformS is 1.43 ± 0.17 kcal/mol, the ΔformG is -1.12 ± 0.096 kcal/mol and the ΔformH was 0.311 ± 0.14 kcal/mol.
With `O=C(NN=Cc1ccccc1O)c1ccncc1.O=C1NS(=O)(=O)c2ccccc21` [[Salinazid + Saccharin] (1:1)], in data set [1] (298 K, ref [13]), the TΔformS is -2.65 ± 0.382 kcal/mol, the ΔformG was -1.74 ± 0.14 kcal/mol and the ΔformH was -4.4 ± 0.239 kcal/mol.
In the case of `Cc1ccc(-c2cc(C(F)(F)F)nn2-c2ccc(S(N)(=O)=O)cc2)cc1.NC(=O)c1cccnc1` [[Celecoxib + Nicotinamide] (1:1)], in data set [1] (298 K, ref [20]), the TΔformS is 1.65 ± 0.478 kcal/mol, the ΔformG is -0.0837 ± 0.012 kcal/mol and the ΔformH is 1.55 ± 0.359 kcal/mol.
In the case of `NCC(=O)O.NCC(=O)O.O=C(O)/C=C/C(=O)O` [[Glycine + Fu maric acid] (2:1)], in data set [1] (298 K, ref [17]), the TΔformS is -0.335 ± 0.14 kcal/mol, the ΔformG is -1.05 ± 0.072 kcal/mol and the ΔformH was -1.39 ± 0.12 kcal/mol.
Take `COc1ccc(C(C)=O)c(O)c1` [Paeonol]: the “log(S0), intrinsic solubility” value is listed as -0.12 mol⋅L-1 in data set [2] (2-propanol, ref [6]); 0.08 mol⋅L-1 in data set [2] (Ethanol, ref [6]); 0.22 mol⋅L-1 in data set [2] (Methanol, ref [6]).
With `CNC(=O)c1cc(Oc2ccc(NC(=O)Nc3ccc(Cl)c(C(F)(F)F)c3)cc2)ccn1.O=c1[nH]cc(F)c(=O)[nH]1` [[Sorafenib + 5-fluorouracil] (1:1)], in data set [1] (303 K, ref [18]), the TΔformS is 0.0048 ± 0.024 kcal/mol, the ΔformG is -1.14 ± 0.022 kcal/mol and the ΔformH is -1.14 ± 0.017 kcal/mol. Moreover, the TΔformS entry in data set [1] (303 K, ref [18], listed as 11) is given as “≈ 0 kJ·mol-1”.
As to `NC(=O)c1cnccn1.Nc1ccc(C(=O)O)cc1`, in data set [1] (298 K, ref [14]), the TΔformS is -8.01 ± 0.765 kcal/mol, the ΔformG is -1.46 ± 0.072 kcal/mol and the ΔformH was -9.46 ± 0.693 kcal/mol.
Consider `NC(=O)N1c2ccccc2C=Cc2ccccc21.O=C1NS(=O)(=O)c2ccccc21` [[CBZ + Saccharin] (1:1)], for which, in data set [1] (306 K, ref [15]), the TΔformS was -0.311 kcal/mol, the ΔformG is -1.1 kcal/mol and the ΔformH is -1.41 ± 0.22 kcal/mol.
`NC(=O)c1ccccn1.O=C1CN(N=Cc2ccc([N+](=O)[O-])o2)C(=O)N1` [[Nitrofurantoin + Picolinamide] (1:1)]: in data set [1] (298 K, ref [19]), the TΔformS was 0.14 ± 0.19 kcal/mol, the ΔformG was -1.17 ± 0.12 kcal/mol and the ΔformH was -1.05 ± 0.17 kcal/mol. Also, the TΔformS result in data set [1] (298 K, ref [19], listed as 12) is reported as “≈ 0 kJ·mol-1”.
Take `CC(O)Cc1nsc(Nc2cccc(Cl)c2)n1.COc1cc(C(=O)O)ccc1O` (stereo not shown) [[XIa+Vanillic acid] (1:1)]: in data set [1] (298 K, ref [12]), the TΔformS is -1.24 ± 0.311 kcal/mol, the ΔformG is -1.27 ± 0.096 kcal/mol and the ΔformH is -2.51 ± 0.22 kcal/mol.
Consider `NC(=O)c1ccccc1O.O=C1CN(N=Cc2ccc([N+](=O)[O-])o2)C(=O)N1` [[Nitrofurantoin + Salicylamide] (1:1)], for which, in data set [1] (298 K, ref [19]), the TΔformS is 0.072 ± 0.17 kcal/mol, the ΔformG was -0.14 ± 0.096 kcal/mol and the ΔformH was -0.072 ± 0.14 kcal/mol. The TΔformS entry in data set [1] (298 K, ref [19], listed as 14) is recorded as “≈ 0 kJ·mol-1”.
For the molecule `NC(=O)N1c2ccccc2C=Cc2ccccc21.NC(=O)c1ccccc1` [[CBZ + Benzamide] (1:1)], in data set [1] (298 K, ref [22]), the TΔformS is 7.29 ± 0.693 kcal/mol, the ΔformG was -1.15 ± 0.072 kcal/mol and the ΔformH is 6.14 ± 0.454 kcal/mol.
As for `NC(=O)N1c2ccccc2C=Cc2ccccc21.NC(=O)c1ccncc1` [[CBZ + isonicotinamide] (1:1)], in data set [1] (298 K, ref [22]), the TΔformS was 5.26 ± 0.598 kcal/mol, the ΔformG was -0.502 ± 0.024 kcal/mol and the ΔformH was 4.76 ± 0.454 kcal/mol.
Turning to `O=C(O)CCCC(=O)O` [Glutaric acid], the “log(S0), intrinsic solubility” value in data set [2] (2-propanol, ref [10]) was 0.56 mol⋅L-1; in data set [2] (Ethanol, ref [10]), 0.45 mol⋅L-1; in data set [2] (Ethyl acetate, ref [10]) it was 0 mol⋅L-1.
Take `COc1cc(C=NNC(=O)c2ccncc2)ccc1O.O=C1NS(=O)(=O)c2ccccc21` [[Vanillin isoniazid + Saccharin] (1:1)]: in data set [1] (298 K, ref [13]), the TΔformS was -1.05 ± 0.454 kcal/mol, the ΔformG was -2.17 ± 0.19 kcal/mol and the ΔformH was -3.23 ± 0.263 kcal/mol.
As to `CC(O)(CS(=O)(=O)c1ccc(F)cc1)C(=O)Nc1ccc(C#N)c(C(F)(F)F)c1.NC(=O)c1ccccc1` (stereo not shown) [[Bicalutamide + Benzamide] (1:1)], in data set [1] (298 K, ref [11]), the TΔformS was -3.87 ± 0.263 kcal/mol, the ΔformG was -0.813 ± 0.072 kcal/mol and the ΔformH is -4.68 ± 0.19 kcal/mol.
Take `NC(=O)N1c2ccccc2C=Cc2ccccc21.NC(=O)c1ccc(O)cc1` [[CBZ + 4-Hydroxybenzamide] (1:1)]: in data set [1] (298 K, ref [22]), the TΔformS is -1.36 ± 0.12 kcal/mol, the ΔformG was -1.6 ± 0.12 kcal/mol and the ΔformH is -2.96 ± 0.22 kcal/mol.
On to `NC(=O)c1ccccc1N.O=C1CN(N=Cc2ccc([N+](=O)[O-])o2)C(=O)N1`, for which, in data set [1] (298 K, ref [19]), the TΔformS was 0.311 ± 0.263 kcal/mol, the ΔformG was -1.08 ± 0.12 kcal/mol and the ΔformH was -0.789 ± 0.19 kcal/mol. Further, the TΔformS entry in data set [1] (298 K, ref [19], listed as 13) is reported as “≈ 0 kJ·mol-1”.
For the molecule `Cc1cc(O)c2c(c1)C(=O)c1cc(O)cc(O)c1C2=O` [Emodin], the “log(S0), intrinsic solubility” value in data set [2] (2-propanol, ref [6]) is on record as -1.68 mol⋅L-1; in data set [2] (Acetone, ref [6]) it was -1.29 mol⋅L-1; in data set [2] (Ethanol, ref [6]) it was -1.74 mol⋅L-1; in data set [2] (Ethyl acetate, ref [6]), -1.43 mol⋅L-1.
